Test results published in PMC6102592, “Synthesis of New Benzothiazole Acylhydrazones as Anticancer Agents” (Molecules : A Journal of Synthetic Chemistry and Natural …, 2018).

Assays:
[1] = system: A549 (Human lung adenocarcinoma epithelial cell line); experiment: MTT cytotoxicity test, A549; type: cell-based
Description: (§1) MTT assay, depending on the capability of metabolically active cells that change the pale yellow MTT colour to a spectrophotometrically measured blue formazan salt, is one of the most favoured cytotoxicity tests. We assessed the antitumor potential of new benzothiazole-acylhydrazones on A549, C6, MCF-7, and HT-29 cell lines with various concentrations (1 mM, 0.316 mM, 0.1 mM, 0.0316 mM, 0.01 mM, 0.00316 mM, 0.001 mM, 0.000316 mM). In addition, the cytotoxic activities of compounds 4a–4j were evaluated against healthy NIH3T3 cells, owing to show the selectivity towards carcinogenic cells. The IC50 values of the compounds against cell lines are represented in Table 1.
(§2) Metabolic activity of viable cells was measured by MTT assay based on the reduction of 3-(4,5-dimethylthiazol-2-yl)-2,5-diphenyltetrazolium salt to a formazan product, which can be quantified spectrophotometrically to determine the percent of viable cells.
(§3) Anticancer activities of new benzothiazole acylhydrazones derivatives were evaluated against A549 C6, MCF-7 and HT-29 cell lines. The selectivity of their cytotoxic effects was evaluated on NIH/3T3 mouse embryonic fibroblast cells. NIH/3T3 cells were incubated in DMEM supplemented with fetal calf serum, penicillin (100 IU/mL), streptomycin ([…]) and 7.5% NaHCO3 at 37 °C in a humidified atmosphere of 95% air and 5% CO2. Carcinogenic cells were incubated in RPMI medium supplemented with fetal calf serum, penicillin (100 IU/mL), streptomycin ([…]) and 7.5% NaHCO3 at 37 °C in a humidified atmosphere of 95% air and 5% CO2. All cell lines were seeded at a density of 1 × 10^4 cells into the 96-well plates. After 24 h of incubating period, the culture mediums were removed and test compounds were added at concentrations of 0.000316–1 mM. After a 24 h incubation period, OD of samples were measured by a microplate reader (Biotek, Winooski, VT, USA) at 540 nm. Inhibition % at concentrations was determined using the formula below and IC50 values were calculated by nonlinear regression analysis using the SigmaPlot v.10 package program (Manufacturer, City, US State abbrev. if applicable, Country).

[2] = system: C6 (Rat brain glioma cell line); experiment: MTT cytotoxicity test, C6; type: cell-based; conditions: 24 h incubation
Description: as §1, §2, §3

[3] = system: MCF-7 (Human breast adenocarcinoma cell line); experiment: MTT cytotoxicity test, MCF-7; type: cell-based
Description: as §1, §2, §3

[4] = system: HT-29 (Human colorectal adenocarcinoma cell line); experiment: MTT cytotoxicity test, HT-29; type: cell-based
Description: as §1, §2, §3

[5] = system: NIH3T3 (Mouse embryo fibroblast cell line); experiment: MTT cytotoxicity test, healthy NIH3T3 cells; type: cell-based; conditions: for IC50: MTT, 24 h incubation, healthy cells
Description: as §1, §2, §3

C6 cell line = experiment: Flow cytometric analysis (Annexin V-FITC/PI); type: cell-based, Rat; conditions: for Q1 percentage of necrotic cells / Q2 percentage of late apoptotic cells / Q4 percentage of early apoptotic cells / Q3 percentage of viable cells / viability at 15 µM: 24 h; for percentages of apoptotic cells: C6, at IC50 concentrations, 24 h (sum of Q2 and Q4); for viability at 15 µM: Rattus norvegicus, read-out: Q3 percentage of viable cells
Description: In the therapy of cancer, apoptosis, or programmed cell death, is one of the distinguished mechanisms of cytotoxic agents. It is an important approach to express the cell death pathway and most of the anticancer drugs induce apoptosis in tumor cells. Annexin V-FITC is a reagent that can detect and measure quantitate of apoptotic cells by flow cytometry. Staining cells with PI and Annexin V-FITC show the differences between live, apoptotic, dead, and late apoptotic or necrotic cells. Thus, this method provides evidence on the pathway of cell death.
Death pathway of the carcinogenic cell lines was detected by Annexin V-FITC Apoptosis Detection Kit (BD, Pharmingen, City, US State abbrev. if applicable, Country) as reported in the manufacturer’s instructions. […] After 24 h incubation period, cells were harvested by centrifugation at 1200 rpm for 5 min. at room temperature, rinsed with cold water twice and then suspended at 1 × 10^6 cells/mL concentration in Annexin V-FITC binding buffer. Propidium iodide ([…]) and annexin V-FITC ([…]) were added for staining the cells and the fluorescence measurements was performed using a flow cytometer. FCSExpress software (version, Manufacturer, City, US State abbrev. if applicable, Country) was used to display the percent of normal and apoptotic cells at different stages. […] The experiments were carried out in triplicate.

[6] = system: DNA synthesis of C6 cells; experiment: DNA synthesis inhibition assay (BrdU cell proliferation); type: cell-based, Rat; conditions: C6, IC50/4 to 4 × IC50, 24 h
Description: This immunostaining assay is related to detecting the attendance of BrdU into nuclear DNA instead of thymidine during S-phase of the cell cycle using specific anti-BrdU antibodies. Thus, this study was performed to evaluate inhibitory effects of compounds 4d, 4e, and 4h on proliferation of C6 cell lines. […] Figure 2 represents the DNA synthesis inhibitory effect of compounds 4d, 4e, and 4h on C6 cells.
The BrdU cell proliferation method was performed to analyse the effects of compounds 4d, 4e and 4h on proliferation of C6 cells. C6 cells were seeded into the 96-well plates at a density of 1 × 10^4 cells. […] At the end of the incubation period, BrdU solution was added and cells were reincubated for 2 h at 37 °C. Anti-BrdU-POD ([…]) was added and the mixture was incubated for 90 min. Microplates were washed with PBS for three times. After adding substrate solution, the mixture was incubated for 15 min. OD of the wells were determined at 492 nm.

[7] = Homo sapiens, A549, 24 h incubation
[8] = Homo sapiens, MCF7, 24 h incubation
[9] = Homo sapiens, HT-29, 24 h incubation

## N.N.[Cl][Pt][Cl] [Cisplatin, reference compound]
[1]; 24 h incubation
  IC50: 60 µM
[2]
  IC50: 30 µM
[3]; 24 h incubation
  IC50: 50 µM
[4]; 24 h incubation
  IC50: 60 µM
[5]
  IC50: > 1000 µM
C6 cell line; C6, IC50 (0.03 mM)
  Q1 percentage of necrotic cells: 3.5%
  Q2 percentage of late apoptotic cells: 18.3%
  Q4 percentage of early apoptotic cells: 2.6%
C6 cell line
  percentages of apoptotic cells: 20.9%

## COc1ccc2sc(SCC(=O)NN=Cc3ccc(N4CCCC(C)C4)cc3)nc2c1 (stereo not shown) [Compound 4h, 2-((5-Methoxybenzo[d]thiazol-2-yl)thio)-N’-(4-(3-methylpiperidin-1-yl)benzylidene)acetohydrazide]
[1]; [7]
  IC50: > 1000 µM
[2]; Rattus norvegicus, Glioma cell
  IC50: 30 µM
[3]; [8]
  IC50: > 1000 µM
[4]; [9]
  IC50: > 1000 µM
[5]; Mus musculus, NIH3T3
  IC50: 100 µM
[6]
  DNA synthesis inhibitory activity compared with cisplatin: could not display the same ability as compounds 4d and 4e to inhibit DNA synthesis
C6 cell line; C6, 2 × IC50 (0.06 mM)
  Q1 percentage of necrotic cells: 5.4%
  Q2 percentage of late apoptotic cells: 10.5%
  Q3 percentage of viable cells: 75.2%
  Q4 percentage of early apoptotic cells: 8.9%
C6 cell line; C6, IC50 (0.03 mM)
  Q1 percentage of necrotic cells: 8.6%
  Q2 percentage of late apoptotic cells: 7.4%
  Q3 percentage of viable cells: 79.4%
  Q4 percentage of early apoptotic cells: 4.6%
C6 cell line; C6, IC50/2 (0.015 mM)
  Q1 percentage of necrotic cells: 10.8%
  Q2 percentage of late apoptotic cells: 4.9%
  Q4 percentage of early apoptotic cells: 0.3%
  viability at 15 µM: 84.1%
C6 cell line
  percentages of apoptotic cells: 12.0%

## COc1ccc2sc(SCC(=O)NN=Cc3ccc(N4CCC(C)CC4)cc3)nc2c1 [Compound 4i, 2-((5-Methoxybenzo[d]thiazol-2-yl)thio)-N’-(4-(4-methylpiperidin-1-yl)benzylidene)acetohydrazide]
[1]; [7]
  IC50: 490 µM
[2]; Rattus norvegicus, Glioma cell
  IC50: 100 µM
[3]; [8]
  IC50: 300 µM
[4]; [9]
  IC50: 1000 µM
[5]; Mus musculus, NIH3T3
  IC50: 30 µM
other
  melting point: 149 to 150 °C

## COc1ccc(N2CCN(c3ccc(C=NNC(=O)CSc4nc5cc(OC)ccc5s4)cc3)CC2)cc1 [Compound 4j, 2-((5-Methoxybenzo[d]thiazol-2-yl)thio)-N’-(4-(4-(4-methoxyphenyl)piperazin-1-yl)benzylidene)acetohydrazide]
[1]; [7]
  IC50: > 1000 µM
[2]; Rattus norvegicus, Glioma cell
  IC50: > 1000 µM
[3]; [8]
  IC50: > 1000 µM
[4]; [9]
  IC50: > 1000 µM
[5]; Mus musculus, NIH3T3
  IC50: > 1000 µM
other
  melting point: 199 to 200 °C

## CC1CCCN(c2ccc(C=NNC(=O)CSc3nc4cc(Cl)ccc4s3)cc2)C1 (stereo not shown) [Compound 4c, 2-((5-Chlorobenzothiazol-2-yl)thio)-N’-(4-(3-methylpiperidin-1-yl)benzylidene)acetohydrazide]
[1]; [7]
  IC50: 520 µM
[2]; Rattus norvegicus, Glioma cell
  IC50: 100 µM
[3]; [8]
  IC50: 100 µM
[4]; [9]
  IC50: 300 µM
[5]; Mus musculus, NIH3T3
  IC50: 30 µM
other
  melting point: 149 to 150 °C

## CC1CCCCN1c1ccc(C=NNC(=O)CSc2nc3cc(Cl)ccc3s2)cc1 (stereo not shown) [Compound 4b, 2-((5-Chlorobenzothiazol-2-yl)thio)-N’-(4-(2-methylpiperidin-1-yl)benzylidene)acetohydrazide]
[1]; [7]
  IC50: 1000 µM
[2]; Rattus norvegicus, Glioma cell
  IC50: 100 µM
[3]; [8]
  IC50: > 1000 µM
[4]; [9]
  IC50: 1000 µM
[5]; Mus musculus, NIH3T3
  IC50: 100 µM
other
  melting point: 138 to 139 °C

## O=C(CSc1nc2cc(Cl)ccc2s1)NN=Cc1ccc(N2CCCCC2)cc1 [Compound 4a, 2-((5-Chlorobenzothiazol-2-yl)thio)-N’-(4-(piperidin-1-yl)benzylidene)acetohydrazide]
[1]; [7]
  IC50: > 1000 µM
[2]; Rattus norvegicus, Glioma cell
  IC50: 100 µM
[3]; [8]
  IC50: 490 µM
[4]; [9]
  IC50: 520 µM
[5]; Mus musculus, NIH3T3
  IC50: 100 µM
other
  melting point: 178 to 179 °C

## COc1ccc2sc(SCC(=O)NN=Cc3ccc(N4CCCCC4C)cc3)nc2c1 (stereo not shown) [Compound 4g, 2-((5-Methoxybenzothiazol-2-yl)thio)-N’-(4-(2-methylpiperidin-1-yl)benzylidene)acetohydrazide]
[1]; [7]
  IC50: > 1000 µM
[2]; Rattus norvegicus, Glioma cell
  IC50: > 1000 µM
[3]; [8]
  IC50: > 1000 µM
[4]; [9]
  IC50: > 1000 µM
[5]; Mus musculus, NIH3T3
  IC50: 100 µM
other
  melting point: 138 to 139 °C

## COc1ccc(N2CCN(c3ccc(C=NNC(=O)CSc4nc5cc(Cl)ccc5s4)cc3)CC2)cc1 [Compound 4e, 2-((5-Chlorobenzothiazol-2-yl)thio)-N’-(4-(4-(4-methoxyphenyl)piperazin-1-yl)benzylidene)acetohydrazide]
[1]; [7]
  IC50: 30 µM
[2]; Rattus norvegicus, Glioma cell
  IC50: 30 µM
[3]; [8]
  IC50: 300 µM
[4]; [9]
  IC50: > 1000 µM
[5]; Mus musculus, NIH3T3
  IC50: 10 µM
[5]; NIH3T3 versus cancer cells
  selectivity index (SI): 0.33
[6]
  DNA synthesis inhibitory activity compared with cisplatin: higher antiproliferative effect than cisplatin at the concentrations of IC50/2, IC50, 2 × IC50, and 4 × IC50
C6 cell line; C6, 2 × IC50 (0.06 mM)
  Q1 percentage of necrotic cells: 10.1%
  Q2 percentage of late apoptotic cells: 14.0%
  Q3 percentage of viable cells: 73.3%
  Q4 percentage of early apoptotic cells: 2.5%
C6 cell line; C6, IC50 (0.03 mM)
  Q1 percentage of necrotic cells: 9.8%
  Q2 percentage of late apoptotic cells: 16.0%
  Q3 percentage of viable cells: 70.7%
  Q4 percentage of early apoptotic cells: 3.5%
C6 cell line; C6, IC50/2 (0.015 mM)
  Q1 percentage of necrotic cells: 13.5%
  Q2 percentage of late apoptotic cells: 3.8%
  Q4 percentage of early apoptotic cells: 0%
  viability at 15 µM: 82.6%
C6 cell line
  percentages of apoptotic cells: 19.5%

## COc1ccc2sc(SCC(=O)NN=Cc3ccc(N4CCCCC4)cc3)nc2c1 [Compound 4f, 2-((5-Methoxybenzothiazol-2-yl)thio)-N’-(4-(piperidin-1-yl)benzylidene)acetohydrazide]
[1]; [7]
  IC50: > 1000 µM
[2]; Rattus norvegicus, Glioma cell
  IC50: > 1000 µM
[3]; [8]
  IC50: > 1000 µM
[4]; [9]
  IC50: > 1000 µM
[5]; Mus musculus, NIH3T3
  IC50: 30 µM
other
  melting point: 138 to 139 °C

## CC1CCN(c2ccc(C=NNC(=O)CSc3nc4cc(Cl)ccc4s3)cc2)CC1 [Compound 4d, 2-((5-Chlorobenzothiazol-2-yl)thio)-N’-(4-(4-methylpiperidin-1-yl)benzylidene)acetohydrazide]
[1]; [7]
  IC50: > 1000 µM
[2]; Rattus norvegicus, Glioma cell
  IC50: 30 µM
[3]; [8]
  IC50: 100 µM
[4]; [9]
  IC50: 300 µM
[5]; Mus musculus, NIH3T3
  IC50: > 1000 µM
[6]
  DNA synthesis inhibitory activity compared with cisplatin: higher inhibition potency than cisplatin at all concentrations
C6 cell line; C6, 2 × IC50 (0.06 mM)
  Q1 percentage of necrotic cells: 4.5%
  Q2 percentage of late apoptotic cells: 7.1%
  Q3 percentage of viable cells: 74.5%
  Q4 percentage of early apoptotic cells: 13.9%
C6 cell line; C6, IC50 (0.03 mM)
  Q1 percentage of necrotic cells: 6.9%
  Q2 percentage of late apoptotic cells: 3.1%
  Q3 percentage of viable cells: 87.6%
  Q4 percentage of early apoptotic cells: 2.4%
C6 cell line; C6, IC50/2 (0.015 mM)
  Q1 percentage of necrotic cells: 16.4%
  Q2 percentage of late apoptotic cells: 12.3%
  Q4 percentage of early apoptotic cells: 0.1%
  viability at 15 µM: 71.2%
C6 cell line
  percentages of apoptotic cells: 5.5%
